Columns and labels:
TLR7 = target: T1, TLR7 (Homo sapiens, UniProt Q9NYK1); assay: HEK TLR7 Cell Assay; assay type: cell-based; settings: TLR7/NFKb HEK cells, R848 agonist 10 uM final, Steady-Glo readout
T1 construct: expressed in transfected cells; host or cells: HEK cells carrying TLR7 and an NFkB luciferase reporter
T1 sequence (Q9NYK1 27-1049): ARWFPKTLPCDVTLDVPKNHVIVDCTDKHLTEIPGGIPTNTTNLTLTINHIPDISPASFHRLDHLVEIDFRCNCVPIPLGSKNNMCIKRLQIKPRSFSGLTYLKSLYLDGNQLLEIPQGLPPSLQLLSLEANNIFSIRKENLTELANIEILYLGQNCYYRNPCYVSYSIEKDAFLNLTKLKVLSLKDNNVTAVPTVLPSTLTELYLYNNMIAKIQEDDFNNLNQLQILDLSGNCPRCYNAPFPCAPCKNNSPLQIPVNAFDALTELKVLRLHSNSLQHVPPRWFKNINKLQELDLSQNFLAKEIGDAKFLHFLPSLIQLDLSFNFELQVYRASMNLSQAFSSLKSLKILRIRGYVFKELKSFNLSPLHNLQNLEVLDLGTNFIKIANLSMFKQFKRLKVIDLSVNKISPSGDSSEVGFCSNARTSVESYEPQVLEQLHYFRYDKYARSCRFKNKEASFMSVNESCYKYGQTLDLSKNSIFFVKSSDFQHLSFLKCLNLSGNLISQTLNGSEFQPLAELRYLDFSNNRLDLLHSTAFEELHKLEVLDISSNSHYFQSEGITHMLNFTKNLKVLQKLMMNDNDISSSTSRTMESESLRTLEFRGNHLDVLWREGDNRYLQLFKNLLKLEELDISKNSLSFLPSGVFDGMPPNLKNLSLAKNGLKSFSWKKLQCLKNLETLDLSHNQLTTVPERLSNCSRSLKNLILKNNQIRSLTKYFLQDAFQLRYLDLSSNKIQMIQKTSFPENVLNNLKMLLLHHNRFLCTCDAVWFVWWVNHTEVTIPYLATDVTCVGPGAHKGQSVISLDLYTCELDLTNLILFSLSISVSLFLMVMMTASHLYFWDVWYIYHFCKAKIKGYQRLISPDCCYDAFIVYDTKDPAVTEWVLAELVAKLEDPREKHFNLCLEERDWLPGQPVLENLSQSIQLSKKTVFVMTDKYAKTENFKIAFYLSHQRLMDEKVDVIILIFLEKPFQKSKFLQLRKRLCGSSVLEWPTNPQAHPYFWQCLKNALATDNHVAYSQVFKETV
Protocol: Example 24: HEK TLR7 Cell Assay
(§1) Into 384 CulturePlates (Corning 3707) was placed 5000 c/w of TLR7/NFKb HEK cells in 30 uL DMEM without Phenol red (gibco #31053) and 10% FCS-HI, 2 mM L-Glutamine, 1% Pen/Strept. The cells are incubated for 24 h at 37 degrees Celsius, and 10% carbon dioxide. Dispense 3 uL of controls, standards, and compounds to wells, incubate for 30 min then add 3 uL of R848 (10 uM final concentration) agonist in 20 mM Hepes. Incubate for 5 hours and then allow to stand at room temperature for 15 min. Add 10 uL of Steady-Glo substrate reagent and shake assay plate for 5 min at 1500 rpm. Let the assay plate sit for 30 min at room temperature and then read plate on EnVision.

TLR8 = target: T2, TLR8 (Homo sapiens, UniProt Q9NR97); assay: HEK TLR8 Cell Assay; assay type: cell-based; settings: TLR8/NFKb HEK cells, R848 agonist 30 uM final, Steady-Glo readout
T2 construct: expressed in transfected cells; host or cells: HEK cells carrying TLR8 and an NFkB luciferase reporter
T2 sequence (Q9NR97 27-1041): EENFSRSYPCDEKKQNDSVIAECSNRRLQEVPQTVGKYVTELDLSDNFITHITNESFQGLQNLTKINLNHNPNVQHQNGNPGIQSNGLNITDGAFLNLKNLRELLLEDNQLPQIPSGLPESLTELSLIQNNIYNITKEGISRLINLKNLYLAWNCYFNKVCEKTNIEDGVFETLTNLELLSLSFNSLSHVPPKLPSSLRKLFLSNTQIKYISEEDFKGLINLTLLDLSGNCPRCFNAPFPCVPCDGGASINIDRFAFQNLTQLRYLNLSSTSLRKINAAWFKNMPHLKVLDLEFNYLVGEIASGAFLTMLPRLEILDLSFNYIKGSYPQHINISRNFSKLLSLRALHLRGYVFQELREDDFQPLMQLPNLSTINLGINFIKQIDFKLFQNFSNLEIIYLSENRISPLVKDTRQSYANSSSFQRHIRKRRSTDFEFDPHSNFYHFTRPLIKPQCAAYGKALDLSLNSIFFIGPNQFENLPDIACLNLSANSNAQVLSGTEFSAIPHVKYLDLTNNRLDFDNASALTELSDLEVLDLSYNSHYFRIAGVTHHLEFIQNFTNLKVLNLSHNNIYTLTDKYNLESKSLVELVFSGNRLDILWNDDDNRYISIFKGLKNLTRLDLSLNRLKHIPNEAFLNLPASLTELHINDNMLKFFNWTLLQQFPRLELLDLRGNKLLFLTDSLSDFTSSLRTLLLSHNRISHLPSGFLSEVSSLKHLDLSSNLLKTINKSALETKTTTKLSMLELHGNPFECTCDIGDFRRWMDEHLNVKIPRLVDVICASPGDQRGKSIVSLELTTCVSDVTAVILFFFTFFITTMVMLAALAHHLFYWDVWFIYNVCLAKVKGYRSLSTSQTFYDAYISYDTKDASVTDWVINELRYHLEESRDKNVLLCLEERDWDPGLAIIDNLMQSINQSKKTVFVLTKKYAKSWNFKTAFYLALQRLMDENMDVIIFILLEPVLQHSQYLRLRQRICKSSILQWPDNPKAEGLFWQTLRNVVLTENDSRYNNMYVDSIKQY
Protocol: Example 25: HEK TLR8 Cell Assay
as §1, with “TLR8/NFKb” for “TLR7/NFKb”, “(30” for “(10”

IC50 (TLR7) | IC50 (TLR8) | SMILES
1 to 10 µM | > 10 µM | Cc1ccc(N2C[C@@H](C)[C@@H](NC(=O)CC3CCN(C)CC3(F)F)C2)c2cccnc12 (single isomer, unassigned) [Compound 43]
1 to 10 µM | 1 to 10 µM | Cc1ccc(N2C[C@@H](C)[C@@H](NC(=O)CC3CCN(C)CC3(F)F)C2)c2cccnc12 (single isomer, unassigned) [Compound 44]
> 10 µM | > 10 µM | Cc1ccc(N2C[C@@H](C)[C@@H](NC(=O)C(O)C3CC3)C2)c2cccnc12 (single isomer, unassigned) [Compound 45]
1 to 10 µM | > 10 µM | Cc1ccc(N2C[C@@H](C)[C@@H](NC(=O)C(O)C3CC3)C2)c2cccnc12 (single isomer, unassigned) [Compound 46]
> 10 µM | > 10 µM | NC1CN(c2ccc(C(F)(F)F)c3ncccc23)CC1F (single isomer, unassigned) [Compound 49]
> 10 µM | > 10 µM | NC1CN(c2ccc(C(F)(F)F)c3ncccc23)CC1F (single isomer, unassigned) [Compound 50]
1 to 10 µM | > 10 µM | C[C@@H]1CN(c2ccc(C(F)(F)F)c3ncccc23)C[C@@H]1N [Compound 17, (3R,4R)-4-methyl-1-[8-(trifluoromethyl)quinolin-5-yl]pyrrolidin-3-amine]
< 1 µM | < 1 µM | C[C@@H]1CN(c2ccc(C(F)(F)F)c3ncccc23)C[C@@H]1NC(=O)CC1CCN(C)CC1 [Compound 18, N-[(3R,4R)-4-methyl-1-[8-(trifluoromethyl)quinolin-5-yl]pyrrolidin-3-yl]-2-(1-methylpiperidin-4-yl)acetamide]
1 to 10 µM | > 10 µM | C[C@@H]1CN(c2ccc(C(F)(F)F)c3ncccc23)C[C@@H]1NC(=O)CN1CCOCC1 [Compound 23, N-[(3R,4R)-4-methyl-1-[8-(trifluoromethyl)quinolin-5-yl]pyrrolidin-3-yl]-2-(morpholin-4-yl)acetamide]
< 1 µM | < 1 µM | C[C@@H]1CN(c2ccc(C(F)(F)F)c3ncccc23)C[C@@H]1NC(=O)CC1(C)CCN(C)CC1 [Compound 24, 2-(1,4-dimethylpiperidin-4-yl)-N-[(3R,4R)-4-methyl-1-[8-(trifluoromethyl)quinolin-5-yl]pyrrolidin-3-yl]acetamide]
< 1 µM | < 1 µM | C[C@@H]1CN(c2ccc(C(F)(F)F)c3ncccc23)C[C@@H]1NC(=O)CC1(F)CCNCC1 [Compound 25, 2-(4-fluoropiperidin-4-yl)-N-[(3R,4R)-4-methyl-1-[8-(trifluoromethyl)quinolin-5-yl]pyrrolidin-3-yl]acetamide]
< 1 µM | < 1 µM | C[C@@H]1CN(c2ccc(C(F)(F)F)c3ncccc23)C[C@@H]1NC(=O)CC1(F)CCN(C)CC1 [Compound 26, 2-(4-fluoro-1-methylpiperidin-4-yl)-N-[(3R,4R)-4-methyl-1-[8-(trifluoromethyl)quinolin-5-yl]pyrrolidin-3-yl]acetamide]
1 to 10 µM | > 10 µM | CC(C)[C@H](O)C(=O)N[C@H]1CN(c2ccc(C(F)(F)F)c3ncccc23)C[C@H]1C [Compound 31, (2S)-2-hydroxy-3-methyl-N-[(3R,4R)-4-methyl-1-[8-(trifluoromethyl)quinolin-5-yl]pyrrolidin-3-yl]butanamide]

SMILES | IC50 (TLR7) | IC50 (TLR8)
C[C@@H]1CN(c2ccc(C#N)c3nccnc23)C[C@@H]1N [Compound 1, 8-[(3R,4R)-3-amino-4-methylpyrrolidin-1-yl]quinoxaline-5-carbonitrile] | < 1 µM | 1 to 10 µM
C[C@@H]1CN(c2ccc(C#N)c3nccnc23)C[C@@H]1NC(=O)CC1CCN(C)CC1 [Compound 2, N-[(3R,4R)-1-(8-cyanoquinoxalin-5-yl)-4-methylpyrrolidin-3-yl]-2-(1-methylpiperidin-4-yl)acetamide] | < 1 µM | < 1 µM
C[C@@H]1CN(c2ccc(C#N)c3nccnc23)C[C@@H]1NC(=O)CN1CCOCC1 [Compound 7, N-[(3R,4R)-1-(8-cyanoquinoxalin-5-yl)-4-methylpyrrolidin-3-yl]-2-(morpholin-4-yl)acetamide] | 1 to 10 µM | 1 to 10 µM
C[C@@H]1CN(c2ccc(C#N)c3nccnc23)C[C@@H]1NC(=O)CC1(C)CCN(C)CC1 [Compound 8, N-[(3R,4R)-1-(8-cyanoquinoxalin-5-yl)-4-methylpyrrolidin-3-yl]-2-(1,4-dimethylpiperidin-4-yl)acetamide] | < 1 µM | < 1 µM
C[C@@H]1CN(c2ccc(C#N)c3nccnc23)C[C@@H]1NC(=O)CC1(F)CCNCC1 [Compound 9, N-[(3R,4R)-1-(8-cyanoquinoxalin-5-yl)-4-methylpyrrolidin-3-yl]-2-(4-fluoropiperidin-4-yl)acetamide] | < 1 µM | < 1 µM
C[C@@H]1CN(c2ccc(C#N)c3nccnc23)C[C@@H]1NC(=O)CC1(F)CCN(C)CC1 [Compound 10, N-[(3R,4R)-1-(8-cyanoquinoxalin-5-yl)-4-methylpyrrolidin-3-yl]-2-(4-fluoro-1-methylpiperidin-4-yl)acetamide] | < 1 µM | < 1 µM
CC(C)[C@H](O)C(=O)N[C@H]1CN(c2ccc(C#N)c3nccnc23)C[C@H]1C [Compound 15, (2S)—N-[(3R,4R)-1-(8-cyanoquinoxalin-5-yl)-4-methylpyrrolidin-3-yl]-2-hydroxy-3-methylbutanamide] | 1 to 10 µM | 1 to 10 µM
CC(C)[C@@H](O)C(=O)N[C@H]1CN(c2ccc(C#N)c3nccnc23)C[C@H]1C [Compound 16, (2R)—N-[(3R,4R)-1-(8-cyanoquinoxalin-5-yl)-4-methylpyrrolidin-3-yl]-2-hydroxy-3-methylbutanamide] | 1 to 10 µM | 1 to 10 µM

From patent US10793553B2, “TLR7/8 antagonists and uses thereof” (Merck Patent GmbH, priority 2017, dated 2020)
